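Interpolation was linear, between the two tested concentrations surrounding the appropriate level; five concentrations were tested over 48 hours in 96-well plates. At the GI50, growth is halved.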 Active and inactive are the calls of the source. No stated cut-off is given here; in the data, active = GI50 up to about 1.1 µM and inactive = higher.
Columns and labels:
Test in all cases: DTP human tumour cell line panel, 48 h
[1] = tested on: MDA-N
[2] = tested on: HT-29
[3] = tested on: 786-0
[4] = tested on: SK-MEL-5
[5] = tested on: OVCAR-5
[6] = tested on: NCI/ADR-RES
[7] = tested on: HOP-92
[8] = tested on: UO-31
[9] = tested on: HCT-15
[10] = tested on: NCI-H522
[11] = tested on: OVCAR-3
[12] = tested on: HL-60
[13] = tested on: T47D
[14] = tested on: EKVX
[15] = tested on: SF-268
[16] = tested on: SNB-75
[17] = tested on: SNB-19
[18] = tested on: PC-3
[19] = tested on: MCF7
[20] = tested on: CAKI-1
[21] = tested on: U-251
[22] = tested on: COLO 205
[23] = tested on: K562
[24] = tested on: IGROV-1
[25] = tested on: OVCAR-4
[26] = tested on: TK-10
[27] = tested on: CCRF-CEM
[28] = tested on: SK-MEL-2
[29] = tested on: OVCAR-8
[30] = tested on: MOLT-4
[31] = tested on: SW-620
[32] = tested on: KM12
[33] = tested on: SR
[34] = tested on: Malme-3M
[35] = tested on: SF-539
[36] = tested on: HOP-62
[37] = tested on: LOX IMVI
[38] = tested on: SK-MEL-28
[39] = tested on: SF-295
[40] = tested on: SK-OV-3
[41] = tested on: SN12C
[42] = tested on: A549
[43] = tested on: HCC 2998
[44] = tested on: Hs-578T
[45] = tested on: M14
[46] = tested on: UACC-257
[47] = tested on: MDA-MB-231
[48] = tested on: NCI-H23
[49] = tested on: DU-145
[50] = tested on: RXF 393
[51] = tested on: BT-549
[52] = tested on: UACC-62
[53] = tested on: ACHN
[54] = tested on: HCT-116
[55] = tested on: NCI-H460
[56] = tested on: NCI-H226
[57] = tested on: MDA-MB-435
[58] = tested on: A498
[59] = tested on: RPMI-8226

`CC(C)(C)OC(=O)N1CCC2(C)CC(=O)CC=C12` (stereo not drawn) was tested, and the GI50 [1] was > 100 µM (inactive), the GI50 [2] was > 100 µM (inactive) and the GI50 [3] was > 100 µM (inactive). For the same molecule, the GI50 [4] was > 100 µM (inactive), the GI50 [5] was > 100 µM (inactive) and the GI50 [6] was > 100 µM (inactive). The GI50 [7] was > 100 µM (inactive), the GI50 [8] was > 100 µM (inactive) and the GI50 [9] was greater than 100 µM. The GI50 [10] was 45.4 µM (inactive), the GI50 [11] was > 100 µM (inactive) and the GI50 [12] was > 100 µM (inactive). For the same molecule, the GI50 [13] was > 100 µM (inactive), the GI50 [14] was > 100 µM (inactive) and the GI50 [15] was > 100 µM (inactive). For the same molecule, the GI50 [16] was > 100 µM (inactive), the GI50 [17] was > 100 µM (inactive) and the GI50 [18] was > 100 µM (inactive). The GI50 [19] was > 100 µM (inactive), the GI50 [20] was > 100 µM (inactive) and the GI50 [21] was > 100 µM (inactive). For the same molecule, the GI50 [22] was > 100 µM (inactive), the GI50 [23] was > 100 µM (inactive) and the GI50 [24] was > 100 µM (inactive). For the same molecule, the GI50 [25] was > 100 µM (inactive), the GI50 [26] was > 100 µM (inactive) and the GI50 [27] was 27.2 µM (inactive). For the same molecule, the GI50 [28] was > 100 µM (inactive), the GI50 [29] was > 100 µM (inactive) and the GI50 [30] was > 100 µM (inactive). The GI50 [31] was 67 µM (inactive), the GI50 [32] was > 100 µM (inactive) and the GI50 [33] was 72.4 µM (inactive). The GI50 [34] was > 100 µM (inactive), the GI50 [35] was > 100 µM (inactive) and the GI50 [36] was > 100 µM (inactive). The GI50 [37] was > 100 µM (inactive), the GI50 [38] was > 100 µM (inactive) and the GI50 [39] was > 100 µM (inactive). For the same molecule, the GI50 [40] was > 100 µM (inactive), the GI50 [41] was > 100 µM (inactive) and the GI50 [42] was > 100 µM (inactive). The GI50 [43] was > 100 µM (inactive), the GI50 [44] was > 100 µM (inactive) and the GI50 [45] was > 100 µM (inactive). The GI50 [46] was 28.2 µM (inactive), the GI50 [47] was > 100 µM (inactive) and the GI50 [48] was > 100 µM (inactive). The GI50 [49] was > 100 µM (inactive), the GI50 [50] was > 100 µM (inactive) and the GI50 [51] was > 100 µM (inactive). The GI50 [52] was > 100 µM (inactive), the GI50 [53] was > 100 µM (inactive) and the GI50 [54] was 81.8 µM (inactive). The GI50 [55] was > 100 µM (inactive), the GI50 [56] was > 100 µM (inactive) and the GI50 [57] was > 100 µM (inactive).

With `COc1ccc(CC2c3cc4c(cc3CCN2C)OCO4)c(C=O)c1OC` (stereo not drawn) the GI50 [1] was > 100 µM (inactive), the GI50 [2] was > 100 µM (inactive) and the GI50 [3] was > 100 µM (inactive). The GI50 [4] was > 100 µM (inactive), the GI50 [5] was > 100 µM (inactive) and the GI50 [6] was > 100 µM (inactive). For the same molecule, the GI50 [7] was > 100 µM (inactive), the GI50 [8] was > 100 µM (inactive) and the GI50 [9] was greater than 100 µM. For the same molecule, the GI50 [10] was > 100 µM (inactive), the GI50 [11] was > 100 µM (inactive) and the GI50 [12] was > 100 µM (inactive). The GI50 [13] was > 100 µM (inactive), the GI50 [14] was > 100 µM (inactive) and the GI50 [15] was > 100 µM (inactive). For the same molecule, the GI50 [16] was 40.8 µM (inactive), the GI50 [17] was > 100 µM (inactive) and the GI50 [18] was > 100 µM (inactive). The GI50 [19] was > 100 µM (inactive), the GI50 [20] was 60.5 µM (inactive) and the GI50 [21] was > 100 µM (inactive). The GI50 [22] was > 100 µM (inactive), the GI50 [23] was > 100 µM (inactive) and the GI50 [24] was > 100 µM (inactive). The GI50 [25] was > 100 µM (inactive), the GI50 [26] was > 100 µM (inactive) and the GI50 [27] was > 100 µM (inactive). For the same molecule, the GI50 [28] was > 100 µM (inactive), the GI50 [29] was > 100 µM (inactive) and the GI50 [30] was > 100 µM (inactive). The GI50 [31] was > 100 µM (inactive), the GI50 [32] was > 100 µM (inactive) and the GI50 [34] was > 100 µM (inactive). For the same molecule, the GI50 [35] was > 100 µM (inactive), the GI50 [37] was > 100 µM (inactive) and the GI50 [38] was > 100 µM (inactive). The GI50 [39] was > 100 µM (inactive), the GI50 [40] was > 100 µM (inactive) and the GI50 [41] was > 100 µM (inactive). The GI50 [42] was > 100 µM (inactive), the GI50 [43] was > 100 µM (inactive) and the GI50 [44] was > 100 µM (inactive). The GI50 [45] was > 100 µM (inactive), the GI50 [46] was > 100 µM (inactive) and the GI50 [58] was > 100 µM (inactive). For the same molecule, the GI50 [47] was > 100 µM (inactive), the GI50 [48] was > 100 µM (inactive) and the GI50 [49] was > 100 µM (inactive). For the same molecule, the GI50 [51] was > 100 µM (inactive), the GI50 [52] was > 100 µM (inactive) and the GI50 [53] was > 100 µM (inactive). The GI50 [54] was > 100 µM (inactive), the GI50 [55] was > 100 µM (inactive) and the GI50 [56] was 57.9 µM (inactive). The GI50 [57] was > 100 µM (inactive) and the GI50 [59] was > 100 µM (inactive).
